From paper PMC8011784, “Chronic peptide-based GIP receptor inhibition exhibits modest glucose metabolic changes in mice when administered either alone or combined with GLP-1 agonism” (PLoS ONE, 2021)

Experiments:
Type in all cases: in vivo, mouse
[1] = test system: DIO mice; test: Chronic GIPA-2 study: circulating lipids, liver and fat depots in DIO mice; conditions: day 28, n = 10
Experimental: For studying the chronic effects of GIPA-2, male C57BL/6JRj mice (n = 40) were fed a HFD (SSNIFF® diet #12492) for 43 weeks. DIO mice were randomized (n = 10 per group) based on baseline blood glucose and body weight. Liraglutide was dissolved in PBS plus 0.1% BSA (Vehicle1) and GIPA-2 in PBS (vehicle 2). Mice received one of the following four treatments daily for 28 days while still maintained on HFD: (1) vehicle 1 (SC) and vehicle 2 (SC); (2) 0.2 mg/kg liraglutide (SC) and vehicle 2; (3) vehicle 1 (SC) and 10 mg/kg GIPA-2 (SC); and (4) 0.2 mg/kg liraglutide (SC) plus 10 mg/kg GIPA-2 (SC). GIPA-2 dose levels were selected based on doses shown to sufficiently antagonize insulinotropic actions of exogenous GIP in acute IPGTT studies (Fig 1J) adjusted for single daily dosing over the 4-week treatment period. Fasted (4 hrs) blood glucose and insulin were measured on study day -4, 10 and 26. An OGTT was performed on day 17. On the day of the OGTT the fasted animals (4 hrs) received their daily doses of vehicles, liraglutide and GIPA-2 one hour before receiving a glucose bolus (2 g/kg). Blood glucose was measured before their daily dosing and at 0, 15, 30 60, 120, 180 and 240 min after glucose administration. An insulin tolerance test (ITT) was performed on day 24. Fasting (4 hrs) mice received their daily doses of vehicles, liraglutide and GIPA-2 one hour before receiving insulin (0.5 U/kg, intraperitoneal injection). Blood glucose was measured before their daily dosing and at 0, 15, 30 60, 120, 180 min after glucose administration. Similar measurements were performed as in the GIPA-1 study. […]
Fasting blood glucose was measured using a BIOSEN c-Line glucose meter (EKF-Diagnostics), insulin was measured using the Meso Scale Diagnostics platform, TG and TC were measured using commercial kits (Roche Diagnostics) on the Cobas C-501 autoanalyzer (Roche), and FFA levels were measured using a Wako Chemicals kit on the Cobas C-501 autoanalyzer, all according to the manufacturers’ instructions. Homeostatic model assessment of insulin resistance (HOMA-IR) was calculated using the following equation: [fasting serum glucose (mmol/L) × fasting serum insulin (pmol/L) / 22.5] to assess insulin resistance.
Fig 4 The effect of GIPR antagonism alone or in combination with liraglutide on lipid homeostasis in DIO mice. […] Statistical analysis was calculated using one-way ANOVA with Dunnett’s post-hoc test. *: p< 0.05, **: p < 0.01, ***: p < 0.001, ****: p<0.0001 compared to vehicle.
Supplementary file pone.0249239.s002.tif: S2 Fig The effect of GIPR antagonists alone or in combination with liraglutide on lipid homeostasis in DIO mice. […] Statistical analysis was calculated using one-way ANOVA with Dunnett’s post-hoc test. *: p< 0.05, **: p < 0.01, ***: p < 0.001, ****: p<0.0001 compared to vehicle. […]

[2] = test system: DIO mice; test: Chronic GIPA-2 study: OGTT in DIO mice; conditions: day 17; oral glucose 2 g/kg one hour after daily dose; liraglutide 0.2 mg/kg SC, GIPA-2 10 mg/kg SC; n = 10
Experimental: (§1) For studying the chronic effects of GIPA-2, male C57BL/6JRj mice (n = 40) were fed a HFD (SSNIFF® diet #12492) for 43 weeks. DIO mice were randomized (n = 10 per group) based on baseline blood glucose and body weight. Liraglutide was dissolved in PBS plus 0.1% BSA (Vehicle1) and GIPA-2 in PBS (vehicle 2). Mice received one of the following four treatments daily for 28 days while still maintained on HFD: (1) vehicle 1 (SC) and vehicle 2 (SC); (2) 0.2 mg/kg liraglutide (SC) and vehicle 2; (3) vehicle 1 (SC) and 10 mg/kg GIPA-2 (SC); and (4) 0.2 mg/kg liraglutide (SC) plus 10 mg/kg GIPA-2 (SC). […] Fasted (4 hrs) blood glucose and insulin were measured on study day -4, 10 and 26. […] Blood glucose was measured before their daily dosing and at 0, 15, 30 60, 120, 180 and 240 min after glucose administration. […] Blood glucose was measured before their daily dosing and at 0, 15, 30 60, 120, 180 min after glucose administration. […]
(§2) Fig 3 Effects of GIPA-1 and GIPA-2 on oral glucose tolerance and insulin responses in DIO mice. […] Statistical analysis was calculated using two-way ANOVA with Tukey’s post-hoc test and one-way ANOVA with Dunnett’s post-hoc test. *: p< 0.05, **: p < 0.01, ***: p < 0.001, ****: p<0.0001 compared to vehicle.

[3] = test system: DIO mice; test: Chronic GIPA-2 study: insulin tolerance test (ITT) in DIO mice; conditions: day 24; insulin 0.5 U/kg ip one hour after daily dose; liraglutide 0.2 mg/kg SC, GIPA-2 10 mg/kg SC; n = 10
Experimental: as §1, §2

**Q.** For liraglutide, which “circulating total cholesterol (TC)” value [1] is on record?
**A.** significantly reduced circulating TC and liver TG concentrations

**Q.** What about the “liver TG” value [1] of the same substance?
**A.** significantly reduced circulating TC and liver TG concentrations

**Q.** And the “plasma FFA” value [1]?
**A.** no effect on either plasma TG or concentrations of circulating FFA

**Q.** And the “plasma TG” value [1]?
**A.** no effect on either plasma TG or concentrations of circulating FFA

**Q.** What about the “glucose excursion in OGTT” value [2] of the same substance?
**A.** beneficial glucose lowering effects of liraglutide

**Q.** What about the “insulin sensitivity (ITT)” value [3] of the same substance?
**A.** improved insulin sensitivity produced by liraglutide
